Assay results: patent publication US20090068290A1, “BIFEPRUNOX DOSES FOR TREATING SCHIZOPHRENIA” (priority 2006, published 2009)

Assays:
[1] = system: adult subjects with schizophrenia; assay: BPRS total score, Clinical Study Two; format: in vivo, human; settings: for BPRS total score, treatment effect (bifeprunox—placebo): Endpoint LOCF; for mean change (SD) from Baseline to Endpoint in BPRS total score: ITT
Description: Rating scale assessments were performed weekly, except for week 5, to measure the change from baseline to endpoint of the PANSS total score. Other assessments included: PANSS positive symptom subscale score, PANSS negative symptom subscale score, PANSS general pschopathology subscale score, BPRS total score, BPRS psychosis score, the CGI-S score, the CGI-I score, responder rates based on the PANSS total score, and the Calgary Depression Scale for Schizophrenia (CDSS). […]
Subjects who completed this study had the option to continue in the long-term. […] Blood samples were also obtained at Screening/Baseline, Week 3, and Week 6 for clinical laboratory assessments.

[2] = system: adult subjects with schizophrenia; assay: PANSS general psychopathology subscale score, Clinical Study Three; format: in vivo, human; settings: for Change from Baseline in PASS General Psychopathology Subscale Score, Mean (SD) / Change from Baseline in PASS General Psychopathology Subscale Score, Median / Trt Effect (bifeprunox - placebo), PASS General Psychopathology Subscale Score / mean change (SD) from Baseline to Endpoint in PANSS general psychopathology subscale score: LOCF; for Change from Baseline in PASS General Psychopathology Subscale Score, Mean (SD) / Change from Baseline in PASS General Psychopathology Subscale Score, Median / Trt Effect (bifeprunox - placebo), PASS General Psychopathology Subscale Score: ITT population; for Trt Effect (bifeprunox - placebo), PASS General Psychopathology Subscale Score: ANCOVA; for PANSS general psychopathology subscale score, treatment effect (bifeprunox—placebo): Endpoint LOCF; for mean change (SD) from Baseline to Endpoint in PANSS general psychopathology subscale score: ITT
Description: (§1) SECONDARY OBJECTIVES To assess the efficacy of bifeprunox in treating schizophrenia using the Positive Symptom sub-scale score of the PANSS, the Negative Symptom sub-scale score of the PANSS, the General Psychopathology sub-scale of the PANSS, Brief Psychiatric Rating Scale (BPRS) total score derived from the PANSS, BPRS psychosis score derived from the PANSS, the Clinical Global Impression Severity of Illness score (CGI-S), the Clinical Global Impression Improvement score (CGI-I), CGI-I responder rate, PANSS responder rate based on the PANSS total score, Calgary Depression Scale for Schizophrenia (CDSS), and Subject Satisfaction rating.
(§2) There were four treatment arms in this study, approximately 144 subjects per arm. […] After completing the Single-Blind Placebo Lead-in Period of at least three days, bifeprunox-treated subjects were titrated from 0.25 mg up to 20 mg/day or 30 mg/day according to a standardized titration scheme over a seven- or eight-day period, respectively. When the assigned dose was reached, subjects were maintained at that dose for the remainder of the six week treatment period. […] Subjects were hospitalized (if not already inpatients) after eligibility for study entry was verified, starting from the Screening Visit until at least 10 days after Baseline. Subjects could be hospitalized longer than 10 days if considered medically necessary by the Investigator. Rating scale assessments for efficacy and abnormal movement disorders were done weekly except for Week 5. […] Subject satisfaction with study medication was assessed at Week 6.

[3] = system: adult subjects with schizophrenia; assay: BPRS total score, Clinical Study Three; format: in vivo, human; settings: for BPRS total score, treatment effect (bifeprunox—placebo): Endpoint LOCF; for mean change (SD) from Baseline to Endpoint in BPRS total score / Change from Baseline in BPRS Total Score, Mean (SD) / Change from Baseline in BPRS Total Score, Median / Change from Baseline in BPRS Total Score, Trt Effect (bifeprunox—placebo): LOCF; for mean change (SD) from Baseline to Endpoint in BPRS total score: ITT; for Change from Baseline in BPRS Total Score, Mean (SD) / Change from Baseline in BPRS Total Score, Median / Change from Baseline in BPRS Total Score, Trt Effect (bifeprunox—placebo): ITT population
Description: as §1, §2

[4] = Body weight, Clinical Study Three
Description: To assess the safety and tolerability of bifeprunox using physical examination, weight, waist circumference, vital signs (pulse rate and systolic/diastolic blood pressure [BP], and oral temperature), 12-lead electrocardiogram (ECG), clinical laboratory assessments (hematology, biochemistry including fasting insulin level, fasting glucose, fasting lipid profile, urinalysis, special laboratory assessments for prolactin, IGF-1, IGFBP-3, and thyroid function), need for anticholinergic treatment during double-blind treatment period, concomitant medication use, adverse event (AE) monitoring, and assessments of abnormal movement including the Simpson-Angus Scale (SAS), Barnes Akathisia Scale (BAS), and Abnormal Involuntary Movement Scale (AIMS).

[5] = Bifeprunox 20 mg, Week 6/Endpoint
[6] = Bifeprunox 30 mg, Week 6/Endpoint
[7] = 'the mg bifeprunox group' (dose not given)

O=c1[nH]c2cccc(N3CCN(Cc4cccc(-c5ccccc5)c4)CC3)c2o1 [Bifeprunox, 7-[4-([1,1′-biphenyl]-3-ylmethyl)-1-piperazinyl]-2(3H)-benzoxazolone]
Change from Baseline in BPRS Total Score, Trt Effect (bifeprunox—placebo) ([1]; Bifeprunox 40 mg, Week 6/Endpoint, LOCF, ITT population): −1.9 | BPRS total score, treatment effect (bifeprunox—placebo) ([1]; bifeprunox 30 mg): −3.2 | mean change (SD) from Baseline to Endpoint in BPRS total score ([1]; bifeprunox 30 mg, LOCF): −8.1 (12.3) | BPRS total score, treatment effect (bifeprunox—placebo) ([1]; bifeprunox 40 mg): −1.9 | mean change (SD) from Baseline to Endpoint in BPRS total score ([1]; bifeprunox 40 mg, LOCF): −6.5 (11.7) | Change from Baseline in PASS General Psychopathology Subscale Score, Mean (SD) ([2]; Bifeprunox 20 mg, Week 1): −2.4 (6.7) | Change from Baseline in PASS General Psychopathology Subscale Score, Median ([2]; Bifeprunox 20 mg, Week 1): −2 | Change from Baseline in PASS General Psychopathology Subscale Score, Mean (SD) ([2]; Bifeprunox 20 mg, Week 2): −4.6 (8.4) | Change from Baseline in PASS General Psychopathology Subscale Score, Median ([2]; Bifeprunox 20 mg, Week 2): −5 | Change from Baseline in PASS General Psychopathology Subscale Score, Mean (SD) ([2]; Bifeprunox 20 mg, Week 3): −5.6 (9.3) | Change from Baseline in PASS General Psychopathology Subscale Score, Median ([2]; Bifeprunox 20 mg, Week 3): −6 | Change from Baseline in PASS General Psychopathology Subscale Score, Mean (SD) ([2]; Bifeprunox 20 mg, Week 4): −5.8 (10.1) | Change from Baseline in PASS General Psychopathology Subscale Score, Median ([2]; Bifeprunox 20 mg, Week 4): −7 | Change from Baseline in PASS General Psychopathology Subscale Score, Mean (SD) [2, 5]: −6.1 (10.7) | Change from Baseline in PASS General Psychopathology Subscale Score, Median [2, 5]: −7 | Trt Effect (bifeprunox - placebo), PASS General Psychopathology Subscale Score [2, 5]: −1.5 | Change from Baseline in PASS General Psychopathology Subscale Score, Mean (SD) ([2]; Bifeprunox 30 mg, Week 1): −2.8 (6.3) | Change from Baseline in PASS General Psychopathology Subscale Score, Median ([2]; Bifeprunox 30 mg, Week 1): −3 | Change from Baseline in PASS General Psychopathology Subscale Score, Mean (SD) ([2]; Bifeprunox 30 mg, Week 2): −3.8 (8.2) | Change from Baseline in PASS General Psychopathology Subscale Score, Median ([2]; Bifeprunox 30 mg, Week 2): −4 | Change from Baseline in PASS General Psychopathology Subscale Score, Mean (SD) ([2]; Bifeprunox 30 mg, Week 3): −5.0 (9.3) | Change from Baseline in PASS General Psychopathology Subscale Score, Median ([2]; Bifeprunox 30 mg, Week 3): −4 | Change from Baseline in PASS General Psychopathology Subscale Score, Median ([2]; Bifeprunox 30 mg, Week 4): −5 | Change from Baseline in PASS General Psychopathology Subscale Score, Mean (SD) [2, 6]: −5.8 (10.3) | Change from Baseline in PASS General Psychopathology Subscale Score, Median [2, 6]: −6 | Trt Effect (bifeprunox - placebo), PASS General Psychopathology Subscale Score [2, 6]: −0.9 | PANSS general psychopathology subscale score, treatment effect (bifeprunox—placebo) ([2]; bifeprunox 20 mg): −1.5 | mean change (SD) from Baseline to Endpoint in PANSS general psychopathology subscale score ([2]; bifeprunox 20 mg): −6.1 (10.7) | PANSS general psychopathology subscale score, treatment effect (bifeprunox—placebo) ([2]; bifeprunox 30 mg): −0.9 | mean change (SD) from Baseline to Endpoint in PANSS general psychopathology subscale score ([2]; bifeprunox 30 mg): −5.8 (10.3) | BPRS total score, treatment effect (bifeprunox—placebo) [3, 7]: −2.1 | mean change (SD) from Baseline to Endpoint in BPRS total score [3, 7]: −7.9 (12.0) | Change from Baseline in BPRS Total Score, Mean (SD) ([3]; Bifeprunox 20 mg, Week 1): −3.2 (7.3) | Change from Baseline in BPRS Total Score, Median ([3]; Bifeprunox 20 mg, Week 1): −3 | Change from Baseline in BPRS Total Score, Mean (SD) ([3]; Bifeprunox 20 mg, Week 2): −6.0 (9.1) | Change from Baseline in BPRS Total Score, Median ([3]; Bifeprunox 20 mg, Week 2): −7 | Change from Baseline in BPRS Total Score, Mean (SD) ([3]; Bifeprunox 20 mg, Week 3): −7.5 (10.3) | Change from Baseline in BPRS Total Score, Median ([3]; Bifeprunox 20 mg, Week 3): −8 | Change from Baseline in BPRS Total Score, Mean (SD) ([3]; Bifeprunox 20 mg, Week 4): −8.1 (11.3) | Change from Baseline in BPRS Total Score, Median ([3]; Bifeprunox 20 mg, Week 4): −9 | Change from Baseline in BPRS Total Score, Mean (SD) [3, 5]: −8.5 (11.9) | Change from Baseline in BPRS Total Score, Median [3, 5]: −8 | Change from Baseline in BPRS Total Score, Trt Effect (bifeprunox—placebo) [3, 5]: −2.1 | Change from Baseline in BPRS Total Score, Mean (SD) ([3]; Bifeprunox 30 mg, Week 1): −3.6 (7.3) | Change from Baseline in BPRS Total Score, Median ([3]; Bifeprunox 30 mg, Week 1): −4 | Change from Baseline in BPRS Total Score, Mean (SD) ([3]; Bifeprunox 30 mg, Week 2): −5.2 (9.3) | Change from Baseline in BPRS Total Score, Median ([3]; Bifeprunox 30 mg, Week 2): −6 | Change from Baseline in BPRS Total Score, Mean (SD) ([3]; Bifeprunox 30 mg, Week 3): −6.7 (10.7) | Change from Baseline in BPRS Total Score, Median ([3]; Bifeprunox 30 mg, Week 3): −7 | Change from Baseline in BPRS Total Score, Mean (SD) ([3]; Bifeprunox 30 mg, Week 4): −7.3 (10.9) | Change from Baseline in BPRS Total Score, Median ([3]; Bifeprunox 30 mg, Week 4): −8 | Change from Baseline in BPRS Total Score, Mean (SD) [3, 6]: −7.9 (12.0) | Change from Baseline in BPRS Total Score, Median [3, 6]: −9 | Change from Baseline in BPRS Total Score, Trt Effect (bifeprunox—placebo) [3, 6]: −1.1 | mean change (SD) from Baseline to Endpoint in BPRS total score ([3]; bifeprunox 20 mg): −8.5 (11.9) | BPRS total score, treatment effect (bifeprunox—placebo) ([3]; bifeprunox 30 mg): −1.1 | Weight, Baseline Mean of subjects with Endpoint change ([4]; Bifeprunox 30 mg): 179.7 lbs | Weight, Baseline Mean of subjects with Week 6 change ([4]; Bifeprunox 30 mg): 172.6 lbs | Weight, Baseline, Max ([4]; Bifeprunox 30 mg): 358 lbs | Weight, Baseline, Mean (SD) ([4]; Bifeprunox 30 mg): 179.1 (62.4) lbs | Weight, Baseline, Median ([4]; Bifeprunox 30 mg): 171 lbs | Weight, Baseline, Min ([4]; Bifeprunox 30 mg): 77 lbs | Weight, Change from Baseline at Endpoint, Max ([4]; Bifeprunox 30 mg): 39 lbs | Weight, Change from Baseline at Endpoint, Mean (SD) ([4]; Bifeprunox 30 mg): −1.1 (7.4) lbs | Weight, Change from Baseline at Endpoint, Median ([4]; Bifeprunox 30 mg): 0 lbs | Weight, Change from Baseline at Endpoint, Min ([4]; Bifeprunox 30 mg): −22 lbs | Weight, Change from Baseline at Week 6, Max ([4]; Bifeprunox 30 mg): 39 lbs | Weight, Change from Baseline at Week 6, Mean (SD) ([4]; Bifeprunox 30 mg): −1.0 (8.9) lbs | Weight, Change from Baseline at Week 6, Median ([4]; Bifeprunox 30 mg): −2 lbs | Weight, Change from Baseline at Week 6, Min ([4]; Bifeprunox 30 mg): −18 lbs | incidence of markedly abnormal (≧7%) decrease in body weight ([4]; Bifeprunox 30 mg): 5% | incidence of markedly abnormal (≧7%) increase in body weight ([4]; Bifeprunox 30 mg): 5% | mean weight change at Endpoint ([4]; Bifeprunox 30 mg): −1.1 lbs | Weight, Baseline Mean of subjects with Endpoint change ([4]; bifeprunox 20 mg): 178.8 lbs | Weight, Baseline Mean of subjects with Week 6 change ([4]; bifeprunox 20 mg): 171.9 lbs | Weight, Baseline, Max ([4]; bifeprunox 20 mg): 393 lbs | Weight, Baseline, Mean (SD) ([4]; bifeprunox 20 mg): 180.6 (61.7) lbs | Weight, Baseline, Median ([4]; bifeprunox 20 mg): 176 lbs | Weight, Baseline, Min ([4]; bifeprunox 20 mg): 77 lbs | Weight, Change from Baseline at Endpoint, Max ([4]; bifeprunox 20 mg): 26 lbs | Weight, Change from Baseline at Endpoint, Mean (SD) ([4]; bifeprunox 20 mg): −2.3 (7.3) lbs | Weight, Change from Baseline at Endpoint, Median ([4]; bifeprunox 20 mg): −1 lbs | Weight, Change from Baseline at Endpoint, Min ([4]; bifeprunox 20 mg): −34 lbs | Weight, Change from Baseline at Week 6, Max ([4]; bifeprunox 20 mg): 26 lbs | Weight, Change from Baseline at Week 6, Mean (SD) ([4]; bifeprunox 20 mg): −3.3 (8.2) lbs | Weight, Change from Baseline at Week 6, Median ([4]; bifeprunox 20 mg): −1 lbs | Weight, Change from Baseline at Week 6, Min ([4]; bifeprunox 20 mg): −34 lbs | incidence of markedly abnormal (≧7%) decrease in body weight ([4]; bifeprunox 20 mg): 6% | incidence of markedly abnormal (≧7%) increase in body weight ([4]; bifeprunox 20 mg): 1% | mean weight change at Endpoint ([4]; bifeprunox 20 mg): −2.3 lbs | mean body weight (in words) ([4]; bifeprunox 20, 30 mg, 6 weeks): Small decreases in mean body weight
